According to patent publication US20130190407A1, “CALCIUM RECEPTOR-ACTIVE MOLECULES” (NPS Pharmaceuticals, Inc., priority 1991, published 2013):

What was measured:
Format in all cases: cell-based
calcium receptor [1] = molecular target: T1, calcium receptor (Homo sapiens, UniProt P41180); assay: Cl- current in Xenopus oocytes injected with human parathyroid cell mRNA
T1 construct: poly(A)^+-enriched mRNA from human parathyroid tissue (hyperplastic glands from a case of secondary HPT); expressed in transfected cells; host or cells: Xenopus laevis oocytes injected with poly(A)+ mRNA from hyperplastic human parathyroid glands
T1 sequence (P41180 20-1078): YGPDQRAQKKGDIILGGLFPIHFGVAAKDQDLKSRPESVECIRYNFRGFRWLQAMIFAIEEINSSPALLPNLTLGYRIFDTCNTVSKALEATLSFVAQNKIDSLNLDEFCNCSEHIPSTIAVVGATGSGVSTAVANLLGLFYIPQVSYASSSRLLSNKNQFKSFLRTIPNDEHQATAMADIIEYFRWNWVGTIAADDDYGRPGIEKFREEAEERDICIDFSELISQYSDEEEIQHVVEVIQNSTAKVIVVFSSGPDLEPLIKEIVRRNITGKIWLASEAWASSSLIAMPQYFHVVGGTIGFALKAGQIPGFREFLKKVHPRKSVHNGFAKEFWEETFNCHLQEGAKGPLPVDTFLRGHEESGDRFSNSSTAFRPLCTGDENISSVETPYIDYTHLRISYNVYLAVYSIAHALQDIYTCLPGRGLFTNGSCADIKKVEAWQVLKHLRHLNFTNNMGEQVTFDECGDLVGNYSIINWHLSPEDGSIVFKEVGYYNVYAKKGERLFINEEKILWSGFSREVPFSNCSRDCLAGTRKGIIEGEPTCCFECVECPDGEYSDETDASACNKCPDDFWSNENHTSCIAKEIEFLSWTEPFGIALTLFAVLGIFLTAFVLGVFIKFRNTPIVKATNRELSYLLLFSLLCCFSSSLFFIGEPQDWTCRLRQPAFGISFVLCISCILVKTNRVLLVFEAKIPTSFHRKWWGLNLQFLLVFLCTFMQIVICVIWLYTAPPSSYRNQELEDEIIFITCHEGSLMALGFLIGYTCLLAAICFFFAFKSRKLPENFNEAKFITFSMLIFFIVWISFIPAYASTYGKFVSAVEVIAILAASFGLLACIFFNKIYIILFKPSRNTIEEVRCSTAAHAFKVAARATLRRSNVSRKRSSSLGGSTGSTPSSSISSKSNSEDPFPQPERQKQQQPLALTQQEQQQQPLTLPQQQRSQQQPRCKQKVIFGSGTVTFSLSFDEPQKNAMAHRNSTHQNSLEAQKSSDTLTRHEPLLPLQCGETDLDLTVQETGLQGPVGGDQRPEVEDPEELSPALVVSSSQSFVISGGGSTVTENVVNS
Method: Oocytes were injected with poly(A)^+-enriched mRNA from human parathyroid tissue (hyperplastic glands from a case of secondary HPT).
Following incubation, an oocyte was placed into a 100-μl plastic chamber and superfused with MBS at a flow rate of 0.5 ml/min using a peristaltic pump. Test molecules or inorganic polycations were added by rapidly moving the tubing into different buffers. Recording and current-passing electrodes were constructed from thin-wall capillary tubing pulled to a resistance of 1-3 Mohms and filled with 3 M KCl. […] Currents were recorded directly onto a strip chart recorder.
Using this screen allows one to test for an action directly on the calcium receptor. Oocytes expressing the calcium receptor also responded to several molecules active on intact parathyroid cells when screened as follows. […] This offers rather compelling evidence showing that these molecules act on the calcium receptor or on some other protein intimately associated with its function.

human parathyroid cells = assay: PTH secretion from human parathyroid cells; details: concentrations that mobilize intracellular Ca2+
Method: PTH secretion was measured by first suspending cells in PCB containing 0.5 mM CaCl2 and 0.1% BSA.
For human cells, a commercially available radioimmunoassay kit (INS-PTH; Nichols Institute, Los Angeles, Calif.) which recognizes intact and N-terminal human PTH was used because GW-1 antibody recognizes human PTH poorly.

calcium receptor [2] = molecular target: T2, calcium receptor (Bos taurus, UniProt P35384); assay: 45Ca2+ release from Xenopus oocytes injected with bovine parathyroid mRNA; details: 10 mM for 20 min, compared to mock challenge with buffer
T2 construct: Whole pieces of gland were used to prepare mRNA that directs the expression of the calcium receptor in Xenopus oocytes; expressed in transfected cells; host or cells: Xenopus laevis oocytes injected with total poly(A)+ mRNA from bovine parathyroid glands
T2 sequence (P35384 20-1085): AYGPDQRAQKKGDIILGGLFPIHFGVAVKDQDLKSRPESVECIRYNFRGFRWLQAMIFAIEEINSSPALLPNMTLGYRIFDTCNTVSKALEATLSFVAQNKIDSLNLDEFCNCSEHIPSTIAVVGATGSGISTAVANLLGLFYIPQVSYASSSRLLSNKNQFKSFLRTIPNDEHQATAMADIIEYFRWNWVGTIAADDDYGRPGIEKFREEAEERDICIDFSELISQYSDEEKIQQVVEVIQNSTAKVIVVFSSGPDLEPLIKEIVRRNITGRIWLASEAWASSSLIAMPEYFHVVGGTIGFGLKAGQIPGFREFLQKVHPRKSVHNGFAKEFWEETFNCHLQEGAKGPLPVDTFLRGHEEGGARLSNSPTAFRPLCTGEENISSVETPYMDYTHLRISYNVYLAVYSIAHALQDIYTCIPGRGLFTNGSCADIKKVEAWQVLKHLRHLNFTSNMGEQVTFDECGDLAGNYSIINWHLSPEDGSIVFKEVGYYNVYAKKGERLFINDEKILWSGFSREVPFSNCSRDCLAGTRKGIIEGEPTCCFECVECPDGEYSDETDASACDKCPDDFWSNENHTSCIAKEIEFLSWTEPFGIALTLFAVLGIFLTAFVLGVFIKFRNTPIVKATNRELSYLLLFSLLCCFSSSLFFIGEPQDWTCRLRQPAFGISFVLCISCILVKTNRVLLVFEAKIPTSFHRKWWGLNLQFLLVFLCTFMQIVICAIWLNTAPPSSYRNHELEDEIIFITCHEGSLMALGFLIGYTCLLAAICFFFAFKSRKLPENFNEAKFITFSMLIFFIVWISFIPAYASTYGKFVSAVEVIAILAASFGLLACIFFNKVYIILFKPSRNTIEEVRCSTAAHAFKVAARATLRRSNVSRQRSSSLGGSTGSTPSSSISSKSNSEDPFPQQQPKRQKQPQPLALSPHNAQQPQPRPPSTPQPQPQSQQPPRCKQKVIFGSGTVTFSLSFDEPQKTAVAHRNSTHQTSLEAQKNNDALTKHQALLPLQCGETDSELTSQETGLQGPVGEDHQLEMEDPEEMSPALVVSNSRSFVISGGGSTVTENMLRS
Excerpt: For example, we have been able to detect calcium receptor expression in oocytes by measuring ^45Ca^2+ mobilization. […] Prior to being stimulated, oocytes were loaded with ^45Ca^2+. […] The assay is sensitive enough for use in cloning the calcium receptor, and has the advantage of a higher throughput than the electrophysiological measurement of Ca^2+-activated Cl^− current.

In the case of `NC[C@@H]1O[C@H](O[C@H]2[C@@H](O)[C@H](O[C@@H]3[C@@H](O)[C@H](N)C[C@H](N)[C@H]3O[C@H]3O[C@H](CN)[C@@H](O)[C@H](O)[C@H]3N)O[C@@H]2CO)[C@H](N)[C@@H](O)[C@@H]1O` [Neomycin B, neomycin B], the “change in current in water-injected oocytes” value (calcium receptor [1]; 10 mM, five water-injected oocytes) is reported as “failed to cause any change in the current”, the “mobilization of intracellular Ca2+ in oocytes” value (calcium receptor [1]; hexacyclen 135 μM, neomycin 100 μM, NPS 382 5 mM) is reported as “effective” and the PTH secretion (human parathyroid cells) is reported as “inhibited PTH secretion”. For the same compound, the “increase in 45Ca2+ release” value (calcium receptor [2]) was 76%.
